Experimental data published in ChEMBL document CHEMBL5055685, “Discovery of the First Potent IDO1/IDO2 Dual Inhibitors: A Promising Strategy for Cancer Immunotherapy” (J Med Chem, 2021).
Activity calls are given as the source filed them. The rule behind the calls is not given here.

Key:
[1] = target: Serine/threonine-protein kinase Nek4 (Homo sapiens) (UniProt P51957); test: Inhibition of NEK4 (unknown origin) at 1 uM
[2] = target: Cyclin-Y/Cyclin-dependent kinase 16 (Homo sapiens) (UniProt Q00536+Q8ND76); test: Inhibition of CDK16/cyclin-Y (unknown origin) at 1 uM; format: protein-complex assay
[3] = target: Calcium/calmodulin-dependent protein kinase type 1G (Homo sapiens) (UniProt Q96NX5); test: Inhibition of CAMK1G (unknown origin) at 1 uM
[4] = target: Activin receptor type-1B (Homo sapiens) (UniProt P36896); test: Inhibition of ALK4 (unknown origin) at 1 uM
[5] = target: Dual specificity mitogen-activated protein kinase kinase 1 (Homo sapiens) (UniProt Q02750); test: Inhibition of MEK1 (unknown origin) at 1 uM
Sequence of Dual specificity mitogen-activated protein kinase kinase 1 (Homo sapiens) (Q02750 whole entry): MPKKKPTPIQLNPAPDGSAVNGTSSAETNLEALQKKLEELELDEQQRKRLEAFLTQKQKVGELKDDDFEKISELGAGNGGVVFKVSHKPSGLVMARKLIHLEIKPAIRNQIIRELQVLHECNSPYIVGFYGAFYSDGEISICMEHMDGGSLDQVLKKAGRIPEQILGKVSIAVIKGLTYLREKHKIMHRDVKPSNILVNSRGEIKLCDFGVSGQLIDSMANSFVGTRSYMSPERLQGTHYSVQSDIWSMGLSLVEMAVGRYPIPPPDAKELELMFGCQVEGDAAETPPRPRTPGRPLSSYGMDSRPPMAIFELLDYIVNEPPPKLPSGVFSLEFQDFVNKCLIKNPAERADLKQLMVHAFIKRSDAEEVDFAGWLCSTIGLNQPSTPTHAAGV

[6] = target: Lymphokine-activated killer T-cell-originated protein kinase (Homo sapiens) (UniProt Q96KB5); test: Inhibition of PBK (unknown origin) at 1 uM
[7] = target: Discoidin domain-containing receptor 2 (Homo sapiens) (UniProt Q16832); test: Inhibition of DDR2 (unknown origin) at 1 uM
[8] = target: Fibroblast growth factor receptor 3 (Homo sapiens) (UniProt P22607); test: Inhibition of FGFR3 (unknown origin) at 1 uM
[9] = target: Tyrosine-protein kinase CSK (Homo sapiens) (UniProt P41240); test: Inhibition of CSK (unknown origin) at 1 uM
[10] = target: Epithelial discoidin domain-containing receptor 1 (Homo sapiens) (UniProt Q08345); test: Inhibition of DDR1 (unknown origin) at 1 uM
CT26 = test: Antitumor activity against mouse CT26 cells implanted in BALB/c mouse assessed as tumor growth inhibition at 50 mg/kg, ip bid for 28 days by vernier caliper method relative to control; format: functional; conditions: CT26, 672 h, time 28 day, read-out: TGI
[11] = target: Serine/threonine-protein kinase haspin (Homo sapiens) (UniProt Q8TF76); test: Inhibition of haspin (unknown origin) at 1 uM
[12] = target: cAMP-dependent protein kinase catalytic subunit PRKX (Homo sapiens) (UniProt P51817); test: Inhibition of PRKX (unknown origin) at 1 uM
[13] = target: SRSF protein kinase 2 (Homo sapiens) (UniProt P78362); test: Inhibition of SRPK2 (unknown origin) at 1 uM
[14] = target: Serine/threonine-protein kinase PAK 2 (Homo sapiens) (UniProt Q13177); test: Inhibition of PAK2 (unknown origin) at 1 uM
Sequence of Serine/threonine-protein kinase PAK 2 (Homo sapiens) (Q13177 whole entry): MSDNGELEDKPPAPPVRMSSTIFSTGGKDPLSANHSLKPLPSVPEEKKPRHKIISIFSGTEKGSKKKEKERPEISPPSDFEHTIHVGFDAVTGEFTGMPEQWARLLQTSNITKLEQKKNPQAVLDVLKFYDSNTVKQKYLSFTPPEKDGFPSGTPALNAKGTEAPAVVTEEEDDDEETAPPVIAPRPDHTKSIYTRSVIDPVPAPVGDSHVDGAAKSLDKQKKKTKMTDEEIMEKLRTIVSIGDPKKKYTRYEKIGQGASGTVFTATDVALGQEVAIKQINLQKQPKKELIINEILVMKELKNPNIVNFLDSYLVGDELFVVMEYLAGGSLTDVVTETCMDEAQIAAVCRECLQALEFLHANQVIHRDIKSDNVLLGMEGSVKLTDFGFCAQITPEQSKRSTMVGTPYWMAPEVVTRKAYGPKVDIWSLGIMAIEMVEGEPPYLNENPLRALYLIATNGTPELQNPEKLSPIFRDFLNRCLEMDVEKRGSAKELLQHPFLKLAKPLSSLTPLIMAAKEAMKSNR

[15] = target: Beta-adrenergic receptor kinase 1 (Homo sapiens) (UniProt P25098); test: Inhibition of GRK2 (unknown origin) at 1 uM
[16] = Clearance in mouse liver microsomes; format: ADME, Microsome; conditions: read-out: CLH
[17] = target: CDK9/cyclin T1 (Homo sapiens) (UniProt O60563+P50750); test: Inhibition of CDK9/cyclin-T1 (unknown origin) at 1 uM; format: protein-complex assay
[18] = target: BDNF/NT-3 growth factors receptor (Homo sapiens) (UniProt Q16620); test: Inhibition of TRKB (unknown origin) at 1 uM
Sequence of BDNF/NT-3 growth factors receptor (Homo sapiens) (Q16620 32-822 limits assumed): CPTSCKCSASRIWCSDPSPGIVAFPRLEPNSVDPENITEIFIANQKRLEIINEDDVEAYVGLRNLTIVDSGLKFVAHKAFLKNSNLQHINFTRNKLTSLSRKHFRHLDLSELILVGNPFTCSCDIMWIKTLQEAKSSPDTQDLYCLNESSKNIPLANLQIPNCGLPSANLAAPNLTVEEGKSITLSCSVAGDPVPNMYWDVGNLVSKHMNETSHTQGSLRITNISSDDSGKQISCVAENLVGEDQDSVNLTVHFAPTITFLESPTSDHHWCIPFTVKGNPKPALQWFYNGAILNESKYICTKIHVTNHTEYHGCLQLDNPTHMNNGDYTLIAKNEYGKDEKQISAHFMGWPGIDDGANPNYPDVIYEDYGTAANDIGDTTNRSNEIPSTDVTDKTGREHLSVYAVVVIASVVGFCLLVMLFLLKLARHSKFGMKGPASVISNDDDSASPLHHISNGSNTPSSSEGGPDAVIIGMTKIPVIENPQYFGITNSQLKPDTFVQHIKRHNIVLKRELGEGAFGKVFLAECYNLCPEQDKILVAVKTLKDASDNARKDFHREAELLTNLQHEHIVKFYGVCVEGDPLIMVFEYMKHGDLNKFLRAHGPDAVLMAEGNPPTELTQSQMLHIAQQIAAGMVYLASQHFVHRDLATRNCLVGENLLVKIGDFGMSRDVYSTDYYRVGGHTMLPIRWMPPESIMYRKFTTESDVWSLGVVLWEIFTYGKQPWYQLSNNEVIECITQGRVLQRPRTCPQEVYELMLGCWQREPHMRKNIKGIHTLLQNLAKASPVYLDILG

[19] = target: Calcium/calmodulin-dependent protein kinase kinase 1 (Homo sapiens) (UniProt Q8N5S9); test: Inhibition of CAMKK1 (unknown origin) at 1 uM
[20] = target: Ephrin type-A receptor 5 (Homo sapiens) (UniProt P54756); test: Inhibition of EPHA5 (unknown origin) at 1 uM
[21] = target: Indoleamine 2,3-dioxygenase 1 (Homo sapiens, UniProt P14902); test: Inhibition of IDO1 (unknown origin) assessed as reduction in kynurenine formation using L-tryptophan as substrate by methylene blue reagent based assay
Sequence of Indoleamine 2,3-dioxygenase 1 (P14902 whole entry): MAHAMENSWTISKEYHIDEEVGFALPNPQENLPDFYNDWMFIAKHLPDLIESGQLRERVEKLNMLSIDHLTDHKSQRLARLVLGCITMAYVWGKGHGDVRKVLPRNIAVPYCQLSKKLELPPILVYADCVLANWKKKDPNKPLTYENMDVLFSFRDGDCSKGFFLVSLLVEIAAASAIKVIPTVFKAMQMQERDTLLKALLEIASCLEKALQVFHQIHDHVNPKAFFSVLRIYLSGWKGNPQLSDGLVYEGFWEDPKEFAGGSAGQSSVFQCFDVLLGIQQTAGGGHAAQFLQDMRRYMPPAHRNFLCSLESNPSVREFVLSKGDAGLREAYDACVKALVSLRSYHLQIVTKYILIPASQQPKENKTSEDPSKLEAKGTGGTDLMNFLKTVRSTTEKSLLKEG

[22] = target: T1, Indoleamine 2,3-dioxygenase 2 (Homo sapiens, UniProt Q6ZQW0); test: Inhibition of IDO2 (unknown origin) assessed as reduction in kynurenine formation using L-tryptophan as substrate by methylene blue reagent based assay
T1 sequence (Q6ZQW0 whole entry): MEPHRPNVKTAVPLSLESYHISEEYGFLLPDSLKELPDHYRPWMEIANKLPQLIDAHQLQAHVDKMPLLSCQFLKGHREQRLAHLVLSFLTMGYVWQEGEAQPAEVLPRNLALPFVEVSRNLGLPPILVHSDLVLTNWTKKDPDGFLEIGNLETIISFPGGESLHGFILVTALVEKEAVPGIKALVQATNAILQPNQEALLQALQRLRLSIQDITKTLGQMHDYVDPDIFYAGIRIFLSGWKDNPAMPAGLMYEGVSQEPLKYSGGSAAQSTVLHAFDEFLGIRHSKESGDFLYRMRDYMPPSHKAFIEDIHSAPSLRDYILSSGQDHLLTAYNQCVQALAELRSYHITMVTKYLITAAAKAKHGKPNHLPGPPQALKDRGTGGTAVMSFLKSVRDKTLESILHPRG

[23] = target: Mitogen-activated protein kinase kinase kinase 3 (Homo sapiens) (UniProt Q99759); test: Inhibition of MEKK3 (unknown origin) at 1 uM
Sequence of Mitogen-activated protein kinase kinase kinase 3 (Homo sapiens) (Q99759 whole entry): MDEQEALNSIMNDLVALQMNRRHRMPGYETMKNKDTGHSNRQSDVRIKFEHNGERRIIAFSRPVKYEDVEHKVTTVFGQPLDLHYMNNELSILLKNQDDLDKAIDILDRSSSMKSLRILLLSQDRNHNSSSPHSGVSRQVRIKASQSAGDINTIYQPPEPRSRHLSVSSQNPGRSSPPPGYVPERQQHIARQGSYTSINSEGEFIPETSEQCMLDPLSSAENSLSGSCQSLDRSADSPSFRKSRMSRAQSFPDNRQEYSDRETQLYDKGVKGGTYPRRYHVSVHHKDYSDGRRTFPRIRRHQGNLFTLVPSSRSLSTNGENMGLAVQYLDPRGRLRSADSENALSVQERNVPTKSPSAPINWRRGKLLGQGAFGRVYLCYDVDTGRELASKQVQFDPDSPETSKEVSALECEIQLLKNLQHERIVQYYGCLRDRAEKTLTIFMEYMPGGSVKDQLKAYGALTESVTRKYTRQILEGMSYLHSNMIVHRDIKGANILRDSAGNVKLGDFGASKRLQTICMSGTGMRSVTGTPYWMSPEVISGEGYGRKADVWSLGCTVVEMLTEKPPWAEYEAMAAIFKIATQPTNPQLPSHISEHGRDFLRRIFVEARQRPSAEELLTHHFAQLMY

[24] = target: Protein-tyrosine kinase 6 (Homo sapiens) (UniProt Q13882); test: Inhibition of BRK (unknown origin) at 1 uM
HCT-116 = test: Antitumor immunity in BALB/c mouse xenografted with human HCT-116 cells assessed as increase in CD80 expression in CD11c+ cells by propidium iodide staining based flow cytometry analysis (reference value: 79.8 %); format: functional
[25] = target: Cyclin-dependent kinase 4/cyclin D1 (Homo sapiens) (UniProt P11802+P24385); test: Inhibition of CDK4/cyclin-D1 (unknown origin) at 1 uM; format: protein-complex assay
[26] = target: NT-3 growth factor receptor (Homo sapiens) (UniProt Q16288); test: Inhibition of TRKC (unknown origin) at 1 uM
[27] = target: Tyrosine-protein kinase JAK1 (Homo sapiens) (UniProt P23458); test: Inhibition of JAK1 (unknown origin) at 1 uM
Sequence of Tyrosine-protein kinase JAK1 (Homo sapiens) (P23458 whole entry): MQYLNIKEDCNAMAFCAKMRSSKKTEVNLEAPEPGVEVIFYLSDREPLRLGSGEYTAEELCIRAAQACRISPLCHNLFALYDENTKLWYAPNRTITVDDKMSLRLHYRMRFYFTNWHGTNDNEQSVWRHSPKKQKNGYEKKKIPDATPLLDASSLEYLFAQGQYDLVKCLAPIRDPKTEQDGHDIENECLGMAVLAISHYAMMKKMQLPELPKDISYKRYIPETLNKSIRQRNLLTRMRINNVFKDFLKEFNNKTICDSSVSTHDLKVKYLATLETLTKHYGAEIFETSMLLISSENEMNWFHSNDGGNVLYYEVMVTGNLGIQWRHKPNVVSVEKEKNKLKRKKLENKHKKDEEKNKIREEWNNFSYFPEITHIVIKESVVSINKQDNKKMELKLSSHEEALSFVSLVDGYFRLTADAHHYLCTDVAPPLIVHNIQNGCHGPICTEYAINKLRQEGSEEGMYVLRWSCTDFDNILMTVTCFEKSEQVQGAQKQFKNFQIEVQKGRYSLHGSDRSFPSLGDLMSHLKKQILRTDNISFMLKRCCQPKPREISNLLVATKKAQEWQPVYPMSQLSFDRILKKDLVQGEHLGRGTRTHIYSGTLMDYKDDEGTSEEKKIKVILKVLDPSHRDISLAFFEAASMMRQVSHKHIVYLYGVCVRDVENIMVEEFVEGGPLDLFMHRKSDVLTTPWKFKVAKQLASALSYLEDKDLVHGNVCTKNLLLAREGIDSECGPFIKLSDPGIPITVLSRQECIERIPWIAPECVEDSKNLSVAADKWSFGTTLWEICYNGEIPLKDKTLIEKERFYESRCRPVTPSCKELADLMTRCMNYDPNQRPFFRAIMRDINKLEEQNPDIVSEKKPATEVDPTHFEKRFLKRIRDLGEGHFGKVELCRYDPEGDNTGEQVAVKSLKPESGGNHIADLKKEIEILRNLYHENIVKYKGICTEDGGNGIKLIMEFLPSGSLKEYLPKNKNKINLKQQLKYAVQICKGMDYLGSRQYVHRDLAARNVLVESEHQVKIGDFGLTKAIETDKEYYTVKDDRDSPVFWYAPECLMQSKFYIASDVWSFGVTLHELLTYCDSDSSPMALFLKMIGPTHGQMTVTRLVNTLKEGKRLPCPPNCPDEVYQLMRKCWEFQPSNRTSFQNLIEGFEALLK

[28] = target: Serine/threonine-protein kinase SIK3 (Homo sapiens) (UniProt Q9Y2K2); test: Inhibition of SIK3 (unknown origin) at 1 uM
Homo sapiens = organism: Homo sapiens; test: Inhibition of ALK6 (unknown origin) at 1 uM
[29] = target: Ephrin type-A receptor 1 (Homo sapiens) (UniProt P21709); test: Inhibition of EPHA1 (unknown origin) at 1 uM
[30] = target: Mitogen-activated protein kinase kinase kinase 5 (Homo sapiens) (UniProt Q99683); test: Inhibition of ASK1 (unknown origin) at 1 uM
[31] = target: Dual specificity testis-specific protein kinase 1 (Homo sapiens) (UniProt Q15569); test: Inhibition of TESK1 (unknown origin) at 1 uM
[32] = AUC (0 to infinity) in Sprague-Dawley rat at 50 mg/kg, po; format: ADME, organism-based; design: time infinity, dose 50 mg/kg, route po; conditions: in vivo
[33] = target: Serine/threonine-protein kinase 17A (Homo sapiens) (UniProt Q9UEE5); test: Inhibition of DRAK1 (unknown origin) at 1 uM
[34] = Protein binding in human plasma by equilibrium dialysis; format: ADME, cell-free; conditions: read-out: PPB (converted)
[35] = Protein binding in Sprague-Dawley rat plasma by equilibrium dialysis; format: ADME, cell-free; conditions: read-out: PPB (converted)

Sequence of Serine/threonine-protein kinase Nek4 (Homo sapiens) (P51957 whole entry, looked up): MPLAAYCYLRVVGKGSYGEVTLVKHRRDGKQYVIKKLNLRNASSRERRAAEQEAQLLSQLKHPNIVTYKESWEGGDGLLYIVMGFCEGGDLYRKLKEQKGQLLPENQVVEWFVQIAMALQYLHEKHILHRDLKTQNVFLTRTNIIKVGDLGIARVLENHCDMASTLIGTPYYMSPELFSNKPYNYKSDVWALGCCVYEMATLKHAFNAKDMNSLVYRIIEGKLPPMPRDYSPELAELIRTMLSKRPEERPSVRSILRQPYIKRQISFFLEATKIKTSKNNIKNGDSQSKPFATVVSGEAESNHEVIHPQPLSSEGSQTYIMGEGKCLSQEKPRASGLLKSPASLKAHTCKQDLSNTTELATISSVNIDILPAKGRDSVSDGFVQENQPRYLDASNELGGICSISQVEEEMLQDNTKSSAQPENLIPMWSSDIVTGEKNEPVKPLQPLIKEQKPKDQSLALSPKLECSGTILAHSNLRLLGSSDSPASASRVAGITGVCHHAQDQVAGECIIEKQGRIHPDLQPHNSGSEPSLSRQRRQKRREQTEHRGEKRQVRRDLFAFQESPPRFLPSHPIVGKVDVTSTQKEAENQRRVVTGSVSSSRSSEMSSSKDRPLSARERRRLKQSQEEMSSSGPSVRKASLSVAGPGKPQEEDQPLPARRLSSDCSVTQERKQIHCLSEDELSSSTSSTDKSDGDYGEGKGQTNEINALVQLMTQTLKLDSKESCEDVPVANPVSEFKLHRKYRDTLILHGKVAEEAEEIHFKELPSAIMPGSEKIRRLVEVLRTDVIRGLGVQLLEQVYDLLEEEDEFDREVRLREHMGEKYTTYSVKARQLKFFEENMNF

## OCCOCc1cn(CCNc2nonc2/C(=N/O)Nc2ccc(F)c(Br)c2)nn1
[1]
  inhibition: inactive
[2]
  inhibition: inactive
[3]
  inhibition: inactive
[4]
  inhibition: inactive
[5]
  inhibition: inactive
[6]
  inhibition: inactive
[7]
  inhibition: inactive
[8]
  inhibition: inactive
[9]
  inhibition: inactive
[10]
  inhibition: inactive
CT26
  inhibition in vivo at 50 mg/kg: 69.7%
[11]
  inhibition: inactive
[12]
  inhibition: inactive
[13]
  inhibition: inactive
[14]
  inhibition: inactive
[15]
  inhibition: inactive
[16]
  microsomal CLint: 32.2 µL/min/mg
[17]
  inhibition: inactive
[18]
  inhibition: inactive
[19]
  inhibition: inactive
[20]
  inhibition: inactive
[21]
  IC50: 28 nM
[22]
  IC50: 144 nM
[23]
  inhibition: inactive
[24]
  inhibition: inactive
HCT-116
  Activity: 75.8%
[25]
  inhibition: inactive
[26]
  inhibition: inactive
[27]
  inhibition: inactive
[28]
  inhibition: inactive
Homo sapiens
  inhibition: inactive
[29]
  inhibition: inactive
[30]
  inhibition: inactive
[31]
  inhibition: inactive
[32]
  AUC(0-inf): 3950 ng·h/mL
[33]
  inhibition: inactive
[34]
  fraction unbound: 0.0411
[35]
  fraction unbound: 0.0672
